Measurements: doi:10.1101/2024.05.02.592243v1, “Vestibular Modulation by Stimulant Derivatives in a Pentameric Ligand-Gated Ion Channel” (biorxiv, 2024)

Assays:
sTeLIC [1] = target: T1, sTeLIC (endosymbiont of Tevnia jerichonana, UniProt G2FID1); assay: two-electrode voltage clamp, Xenopus laevis oocytes; format: cell-based; design: gene TevJSym_bc00020; homopentamer (C5); oocyte rows: sTeLIC cDNA in vector pMT3, Xenopus laevis oocytes; details: pH 8.5 (~EC20), 30-s coapplication, -40 mV
T1 sequence (G2FID1 1-320): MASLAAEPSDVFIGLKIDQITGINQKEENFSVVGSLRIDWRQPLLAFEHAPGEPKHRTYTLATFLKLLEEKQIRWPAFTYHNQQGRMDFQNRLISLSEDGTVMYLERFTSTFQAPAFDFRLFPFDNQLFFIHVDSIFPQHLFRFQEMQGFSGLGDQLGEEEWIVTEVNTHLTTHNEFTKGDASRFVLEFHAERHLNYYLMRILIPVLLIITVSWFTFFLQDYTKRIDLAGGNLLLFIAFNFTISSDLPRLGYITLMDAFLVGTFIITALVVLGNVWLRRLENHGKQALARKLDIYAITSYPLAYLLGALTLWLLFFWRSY

sTeLIC [2] = target: T1, sTeLIC; assay: X-ray co-crystal structure, […] A, anomalous Br signal; format: binding; design: gene TevJSym_bc00020; homopentamer (C5); oocyte rows: sTeLIC cDNA in vector pMT3, Xenopus laevis oocytes; structures: N-terminal MBP fusion (pET20b, E. coli C43(DE3)), MBP cut off with thrombin; details: pH 8.0, DDM/NDG detergent, 3 mM ligand; vestibular site, open state
sTeLIC [3] = target: T1, sTeLIC; assay: cryo-EM structure; format: binding; design: gene TevJSym_bc00020; homopentamer (C5); oocyte rows: sTeLIC cDNA in vector pMT3, Xenopus laevis oocytes; structures: N-terminal MBP fusion (pET20b, E. coli C43(DE3)), MBP cut off with thrombin; details: pH 7.5, saposin nanodisc, 2 mM FFC-8; density in vestibular site, open state

SMILES	% modulation (sTeLIC [1]; positive allosteric modulator, vestibular site, up to 200 uM)	X-ray co-crystal structure, 3.2 A, anomalous Br signal (sTeLIC [2])	% modulation (sTeLIC [1]; positive modulator, micromolar concentrations)	cryo-EM structure (sTeLIC [3])
C[C@H](N)Cc1ccc(Br)cc1 [BrAmp]	BrAmp showed positive modulatory effects similar to BrCA	Anomalous signal from the bromine atom of BrAmp allowed definitive placement in the vestibular pocket		
C[N+](C)(C)CCOP(=O)([O-])OCCC(F)(F)C(F)(F)C(F)(F)C(F)(F)C(F)(F)C(F)(F)F [FFC-8]			micromolar concentrations of FFC-8 potentiated sTeLIC currents in oocytes	This density could reasonably accommodate fluorinated fos-choline-8 (FFC-8)
